Columns and labels:
[1] = system: MB-231 breast cancer cell lines; assay: DAF assay of cell membrane penetration, MB-231; conditions: MB-231 cell line
Description: Intracellular NO/HNO release from the derivatized NSAIDs was determined using 4-amino-5-methylamino-2′,7′-difluorofluoroescein diacetate (DAF-FM diacetate) as in Example 9.

MCF-10A = assay: MTT cell survival, MCF-10A; format: cell-based; conditions: MCF-10A normal mammary epithelial cell line, 48 h
Description: (§1) MDA-MB-231, MCF-7 and MDA-MB-468, human breast carcinoma cell lines and MCF-10A, breast […] (American Type Culture Collection, Manassas, Va.) were grown as monolayers in RPMI 1640 supplemented with 10% FCS (Hyclone), penicillin (50 units/ml), streptomycin ([…]; Life Technologies, Inc., Grand Island, N.Y.) and endothelial growth media (Lonanza) respectively. Cells were seeded at a density of 1×10^6 cells/100-cm^2 culture dish and incubated at 37° C. in 5% CO2 and 80% relative humidity. Single-cell suspensions were obtained by trypsinization (0.05% trypsin/EDTA), and cells were counted using a Beckman cell counter.
(§2) 1000× stock solutions aspirin, of a DEA/NO-ASA, and IPA/NO-ASA were made in DMSO and final concentration in the media or PBS was adjusted to 0.1% DMSO.
(§3) The effect of NONO-aspirin on cell proliferation was studied using an MTT assay. The effect of DEA/NO-ASA, IPA/NO-ASA, aspirin, IPA/NO and DEA/NO was measured using the MTT assay. Cells were plated at a concentration of 8,000-10,000 cells per well in a 96 well plate and grown overnight. Cells were treated with different concentrations of the compounds and controls for 48 h. After 48 h, a solution of 5 mg/ml MTT was added to each well and incubated for 1 h. Then the media was removed from each well and 100 uL DMSO was added to each well and the absorbance was read at 550 nm. […]

caspase-3 [2] = assay: Caspase-3 fluorescence assay, MCF-7; format: cell-based, human; conditions: 12 h
Description: (§4) The caspase-3 activity in the presence of IPA/NO-ASA and DEA/NO-ASA was measured using caspase-3 fluorescence assay kit (Cat No. 10009135, Cayman Chemical). Cells were plated at a concentration of 50,000 cells per well in a 96 well plate and grown overnight. Then the cells were treated with different concentrations of the compounds and controls for 12 h. After 12 h, the plate was centrifuged at 800 g and the media was removed by aspiration. 100 μL of lysis buffer was added to each well and the plate was incubated for […] at room temperature. 100 μL of a caspase-3 substrate solution was added to each well and incubated for 30 min after which the fluorescence was read at excitation of 485 nm and emission of 535 nm.

[3] = system: carrageenan induced rat paw edema; assay: Carrageenan induced rat paw edema assay; format: in vivo, Sprague-Dawley rats; conditions: for Anti-inflammatory Activity ID50: oral, 3 h after administration
Description: Anti-inflammatory properties were studied in vivo in a carrageenan induced rat paw edema assay after 3 h of administration of the compound orally to Sprague-Dawley rats.
To verify whether IPA/NO-aspirin and DEA/NO-aspirin retain the anti-inflammatory properties of their parent NSAID in vivo, aspirin, PA/NO-aspirin or DEA/NO-aspirin was administered to rats with paw edema induced by carrageenan.

caspase-3 [4] = assay: Caspase-3 fluorescence assay, MDA-MB-231; format: cell-based, human; conditions: 12 h
Description: as §4

COX-2 mRNA = assay: COX mRNA levels; format: cell-based; conditions: Control 1.0
Text: PGE2 levels are a direct measure of COX-2 activity. […] Increased COX-2 expression in the presence of aspirin has been reported previously (Davies et al., Alimentary Pharm. & Ther. 11(6):1101-08 (1997))). Both DEA/NO and DEA/NO-aspirin seem to augment the effect of aspirin while IPA/NO and IPA/NO-aspirin nullifies the effect and brings it back to the control level (Table 3).

[5] = Kinetic profile of NO and HNO release / stability in buffer; format: physicochemical; conditions: phosphate buffer pH 7.4, several hours
Description: The newly synthesized HNO-releasing aspirin (IPA/NO-aspirin, 4) and NO-releasing aspirin (DEA/NO-aspirin, 8) were evaluated for the kinetic profile of NO and HNO release in buffer and cells.

[6] = biological target: glyceraldehyde-3-phosphate dehydrogenase (GAPDH) (Homo sapiens, UniProt P04406); assay: GAPDH activity, MCF-7; format: cell-based; design: endogenous in cells; host or cells: MDA-MB-231, MDA-MB-468, MCF-7, MCF-10A; conditions: MCF-7, 100 μM
Chain of glyceraldehyde-3-phosphate dehydrogenase (GAPDH) (P04406 whole entry): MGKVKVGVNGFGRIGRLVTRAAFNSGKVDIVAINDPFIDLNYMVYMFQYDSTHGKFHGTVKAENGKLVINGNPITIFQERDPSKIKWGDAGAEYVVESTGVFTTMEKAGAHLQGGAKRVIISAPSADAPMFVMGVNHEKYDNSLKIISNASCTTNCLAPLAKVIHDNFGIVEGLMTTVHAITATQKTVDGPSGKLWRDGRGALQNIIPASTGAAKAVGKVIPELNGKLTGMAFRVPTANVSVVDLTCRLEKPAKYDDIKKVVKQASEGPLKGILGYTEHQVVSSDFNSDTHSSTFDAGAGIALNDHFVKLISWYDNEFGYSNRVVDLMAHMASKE
Description: Cells were plated at a concentration of 30,000 cells per well and grown overnight. Cells were treated with 100 μM IPA/NO-aspirin and DEA/NO-aspirin for 1, 3, and 6 h after which 200 μL of KDalert lysis buffer was added to each well. The plate was incubated at 4° C. for 20 min to lyse the cells. 10 μL of cell lysate was transferred to a clean 96 well plate and 90 μL of KDalert mastermix was added to each well and the fluorescence was measured at excitation of 540 nm and emission of 570 nm.

E-cadherin = E-cadherin expression in MDA-MB-231 cells; format: cell-based, human; conditions: MDA-MB-231, 100 μM, mRNA and protein level
Description: MDA-MB-231 cells were plated at a concentration of 500,000 cells per plate on 60 mm plate and grown overnight. They were then treated with 100 μM of IPA/NO-aspirin, DEA/NO-aspirin, IPA/NO, DEA/NO and aspirin for 1 to 24 h.

MB-468 cells = assay: MTT cell survival, MDA-MB-468; format: cell-based, human; conditions: MTT assay
Description: as §1, §2, §3

breast cancer cells = assay: MTT cell survival, breast cancer cells (cell line not given); format: cell-based, human; conditions: 48 h of treatment, cell line not named
Description: The effect of NONO-aspirin on cell proliferation was studied using an MTT assay. The effect of DEA/NO-ASA, IPA/NO-ASA, aspirin, IPA/NO and DEA/NO was measured using the MTT assay. Cells were plated at a concentration of 8,000-10,000 cells per well in a 96 well plate and grown overnight. Cells were treated with different concentrations of the compounds and controls for 48 h. After 48 h, a solution of 5 mg/ml MTT was added to each well and incubated for 1 h. Then the media was removed from each well and 100 uL DMSO was added to each well and the absorbance was read at 550 nm. Inhibition of growth with different treatments was reported as percentage of corresponding control.

HUVEC cells = assay: Tube formation (angiogenesis) on Matrigel; format: cell-based; conditions: 12 h, even at 1 μM, compared to control
Description: To determine the effect of NO and HNO releasing aspirin on angiogenesis, HUVEC cells were treated with the compounds and tube formation was studied after 12 h. Matrigel (50 μL) was added to each well in a 96 well plate and incubated for 2 h at 37° C. Cell suspension treated with different concentrations of IPA/NO-aspirin, DEA/NO-aspirin and controls was added to each well at a concentration of 20,000 cells per well. After 12 hours, tube formation was measured using a microscope.

SMILES | cell membrane penetration [1] | cytotoxicity (MCF-10A) | Caspase-3 Activity (caspase-3 [2]; MCF-7, 25 μM) | Caspase-3 Activity (caspase-3 [2]; MCF-7, 50 μM) | Caspase-3 Activity (caspase-3 [2]; MCF-7, 100 μM) | potency relative to aspirin ([3]; less potent than parent drug) | Anti-inflammatory Activity ID50 [3] | Caspase-3 Activity (caspase-3 [4]; MDA-MB-231, 25 μM) | Caspase-3 Activity (caspase-3 [4]; MDA-MB-231, 50 μM) | Caspase-3 Activity (caspase-3 [4]; MDA-MB-231, 100 μM) | COX-2 mRNA level relative to control (COX-2 mRNA) | stability in phosphate buffer [5] | GAPDH Activity ([6]; 1 h) | GAPDH Activity ([6]; 3 h) | GAPDH Activity ([6]; 6 h) | E-cadherin level (E-cadherin) | IC50 (MB-468 cells) | IC50 (breast cancer cells) | angiogenesis (tube formation) (HUVEC cells)
CCN(CC)[N+]([O-])=NOCOC(=O)c1ccccc1OC(C)=O [DEA/NO-aspirin, O^2-(Acetylsalicyloyloxymethyl)-1-(N,N-Diethylamino)-diazen-1-ium-1,2-diolate] | penetrated cell membranes | none of the compounds showed any significant cytotoxicity | 0.30 U/mL | 0.35 U/mL | 0.27 U/mL | 1.3 times | 168.6 mg/kg | 0.25 U/mL | 0.24 U/mL | 0.31 U/mL | 6.5 | relatively stable | 0.080 U/mL | 0.110 U/mL | 0.130 U/mL | increased E-cadherin expression | 85 µM | 75 µM | reduced angiogenesis
CC(=O)Oc1ccccc1C(=O)OCON=[N+]([O-])NC(C)C [IPA/NO-aspirin, O^2-(Acetylsalicyloyloxymethyl)-1-(N-isopropylamino)-diazen-1-ium-1,2-diolate] | penetrated cell membranes | none of the compounds showed any significant cytotoxicity | 0.30 U/mL | 0.60 U/mL | 0.58 U/mL |  | 121.3 mg/kg | 0.40 U/mL | 0.48 U/mL | 0.55 U/mL | 0.8 | relatively stable | <0.010 U/mL | <0.010 U/mL | <0.010 U/mL | did not show any significant change | 80 µM | 50 µM | reduced angiogenesis
